Experimental data from paper PMC2990587, “Central nervous system penetration and enhancement of temozolomide activity in childhood medulloblastoma models by poly(ADP-ribose) polymerase inhibitor AG-014699” (British Journal of Cancer, 2010).
“Also recorded” adds a separate entry of the source.

Experiments:
[1] = Toxicity (body weight loss) in tumour-bearing mice; assay type: in vivo, mouse; details: daily x5; TMZ 68 mg kg−1 p.o., AG-014699 1 mg kg−1 i.p.
Protocol: CD-1 nude mice bearing palpable, established subcutaneous D425Med, D283Med and D384Med xenografts were treated with normal saline (control animals), temozolomide (68 mg kg^−1 per os (p.o.)) or AG-014699 (1 mg kg^−1 i.p.) alone or in combination, daily for 5 days (five mice per group). For drug combinations, AG-014699 was administered immediately after administering temozolomide. Tumour volumes, determined from two-dimensional calliper measurements and the equation a^2 × b/2 (where a is the […] of the tumour), were monitored for the experimental period (up to 100 days), and are presented for each group of mice as median relative tumour volume (RTV) values. Relative tumour volume 1 is the tumour volume on the initial day of treatment (day 0), and RTV4 is the tumour volume four times that on the initial day of treatment. Tumour growth delay (TGD) is defined as the time to RTV4 in drug-treated mice compared with the time to RTV4 in control (vehicle alone) mice. Median tumour volume is shown, rather than the mean, as this is generally accepted as the most statistically reliable representation of the average growth rate of tumours in a small group of mice, if a normal distribution of tumour volumes cannot be assumed. Tumour growth delay was calculated as: median time to RTV4 in treated group−median time to RTV4 in control group. Percentage enhancement was calculated as 100 × (TGD TMZ+AG-014699/TGD TMZ alone)−100 ([Calabrese et al, 2004]).

D283Med xenografts = assay: Tumour growth inhibition in vivo, D283Med xenografts; set-up: species or system mouse; details: for Complete regressions: mice with regression/group
Text: (§1) All of the in vivo experiments were reviewed and approved by the relevant institutional animal welfare committees, and performed according to national law. Female athymic nude mice (CD1 nu/nu; Charles River, Margate, UK) used for anti-tumour studies were maintained and handled in isolators under specific pathogen-free conditions. […], […] and […] (1 × 10^7 exponentially growing cells per mouse, harvested and implanted in growth media) xenografts were established by sub-cutaneous implantation into CD-1 nude mice. […] Treatment was initiated when sufficient number of mice had established tumours to allow randomisation into treatment groups: day 17 for […], day 26 for […] and day 32 for […]. […] For drug combinations, AG-014699 was administered immediately after administering temozolomide. […] Tumour growth delay (TGD) is defined as the time to RTV4 in drug-treated mice compared with the time to RTV4 in control (vehicle alone) mice. Median tumour volume is shown, rather than the mean, as this is generally accepted as the most statistically reliable representation of the average growth rate of tumours in a small group of mice, if a normal distribution of tumour volumes cannot be assumed. Tumour growth delay was calculated as: median time to RTV4 in treated group-median time to RTV4 in control group.

D425Med cells = assay: XTT growth inhibition, D425Med; assay type: cell-based, human; details: for GI50: D425Med, temozolomide alone, XTT, 3 days
Protocol: (§2) Cell growth inhibition was estimated in exponentially growing D425Med, D283Med and D384Med cells in 96-well plates. Seeding densities of 1 × 10^3, 3 × 10^3 and 3 × 10^3 cells, respectively, ensured exponential growth for the duration of the experiment. At 24 h (D384Med) or 48 h (D283Med and D425Med) after seeding, cells were exposed to varying concentrations of temozolomide, as described in the Results, in the presence or absence of 0.4 μM AG-014699, a concentration previously shown to enhance temozolomide cytotoxicity in adult tumour cell lines ([Thomas et al, 2007]). After 3 days (D425Med and D384Med) or 5 days (D283Med) of culture (equivalent to approximately three cell divisions), the cell viability was quantified using an XTT cell proliferation kit assay (Roche, Mannheim, Germany), according to the manufacturer's instructions. Cell growth was expressed as a percentage in relation to DMSO or 0.4 μM AG-014699-alone controls. The concentration of temozolomide, alone or in combination with AG-014699, that inhibited growth by 50% (GI50) was calculated from computer-generated curves (GraphPad Software, San Diego, CA, USA). The potentiation factor50 (PF50) is defined as the ratio of […]. All data were from at least three independent experiments.

D384Med cells = assay: XTT growth inhibition, D384Med; assay type: cell-based, human; details: Homo sapiens, D384 Med, 72 h; D384Med; temozolomide alone; XTT, 3 days
Protocol: as §2

D384Med xenografts = assay: Tumour growth inhibition in vivo, D384Med xenografts; set-up: species or system mouse; details: for Complete regressions: mice with regression/group, transient
Text: as §1

D425Med xenografts = assay: Tumour growth inhibition in vivo, D425Med xenografts; set-up: species or system mouse
Text: as §1

D283Med cells = assay: XTT growth inhibition, D283Med; assay type: cell-based, human
Protocol: as §2

[2] = AG-014447 distribution in plasma, brain and D283Med xenograft of tumour-bearing mice (LC/MS/MS); assay type: in vivo, mouse; details: for AUC in tumour: D283Med xenograft
Protocol: One or four daily doses of PARP inhibitor AG-014699 (1 mg kg^−1 intraperitoneally (i.p.)) were given to CD-1 nude mice bearing established D283Med xenografts. At 0.5, 2, 6 and 24 h after the initial or fourth daily dose of AG-014699, three animals per time point were bled by cardiac puncture under general anaesthesia, and then killed. Plasma was separated from the blood samples using standard methods and stored at −80°C. The brains and tumours were removed, snap frozen in liquid nitrogen and stored at −80°C before analysis. Blood, tumour and brain tissue were removed from three untreated control animals and processed in the same way.
AG-014699 is the phosphate salt of AG-014447 and rapidly liberates the parent drug following injection. The concentration of AG-014447 was determined in plasma and tissue homogenates (1 : 4 (w v^−1) in PBS) of brain and tumour after protein precipitation with acetonitrile by liquid chromatography/mass spectrometry/mass spectrometry using a turbo ion spray interface and multiple reaction monitoring in the positive ion mode (API 4000; Applied Biosystems, Warrington, Cheshire, UK) and a deuterated internal standard as described previously ([Plummer et al, 2008]). The lower limit of quantitation was 1 ng ml^−1. Plasma pharmacokinetics of AG-014447 were analysed using a non-compartmental approach in WinNonlin version 5.2.

[3] = set-up: method as in Thomas et al, 2007; details: ref Thomas et al, 2007; cited from earlier work

Structure (SMILES): Cn1nnc2c(C(N)=O)ncn2c1=O [temozolomide]
- Body weight loss [1]: 5±4%
- Median nadir body weight (% starting weight) (D283Med xenografts; D283Med-bearing mice, daily x5, TMZ 68 mg kg−1 p.o., AG-014699 1 mg kg−1 i.p.): 94 % starting weight
- Median time to RTV4 (D283Med xenografts; D283Med, daily x5, TMZ 68 mg kg−1 p.o., AG-014699 1 mg kg−1 i.p.): 9 days
- Complete regressions (D283Med xenografts; D283Med): no regressions observed in any mice
- Complete regressions (D283Med xenografts; D283Med, listed as TMZ): 0/5
- Tumour growth delay (D283Med xenografts; D283Med, versus control time to RTV4): 2 days
- Relative sensitivity to temozolomide (times more sensitive) (D425Med cells; D425Med compared with D384Med, in culture): ~25 times
- GI50 (D425Med cells): 9.3 ± 7.5 µM
- GI50 (D425Med cells; Homo sapiens, D425 Med, 72 h): 9 µM
- GI50 (D384Med cells): 220 ± 42 µM
- Median nadir body weight (% starting weight) (D384Med xenografts; D384Med-bearing mice, daily x5, TMZ 68 mg kg−1 p.o., AG-014699 1 mg kg−1 i.p.): 97 % starting weight
- Median time to RTV4 (D384Med xenografts; D384Med, daily x5, TMZ 68 mg kg−1 p.o., AG-014699 1 mg kg−1 i.p.): 44.5 days
- Complete regressions (D384Med xenografts; D384Med): one transient complete response
- Complete regressions (D384Med xenografts; D384Med, listed as TMZ): 1/5
- Tumour growth delay (D384Med xenografts; D384Med, versus control time to RTV4): 28.5 days
- Median nadir body weight (% starting weight) (D425Med xenografts; D425Med-bearing mice, daily x5, TMZ 68 mg kg−1 p.o., AG-014699 1 mg kg−1 i.p.): 96 % starting weight
- Complete tumour regressions (including not sustained) (D425Med xenografts; D425Med, daily x5): complete tumour regressions seen in all mice; also recorded: all mice showing complete tumour regressions
- Median time to RTV4 (D425Med xenografts; D425Med, daily x5, TMZ 68 mg kg−1 p.o., AG-014699 1 mg kg−1 i.p.): >100 days
- Complete regressions (D425Med xenografts; D425Med, mice with regression/group, sustained for 100 days): two out of five
- Tumour growth delay (D425Med xenografts; D425Med, versus control time to RTV4): >81 days
- Relative sensitivity to temozolomide (times less sensitive) (D283Med cells; D283Med compared with D384Med): nearly four times less sensitive
- Relative sensitivity to temozolomide (times less sensitive) (D283Med cells; D283Med compared with D425Med): ~100 times
- GI50 (D283Med cells; Homo sapiens, D283 Med, 120 h, D283Med, temozolomide alone, XTT, 5 days): 807 ± 239 µM

Structure (SMILES): CNCc1ccc(-c2[nH]c3cc(F)cc4c3c2CCNC4=O)cc1 [AG-014447]
- Levels in the brain relative to plasma ([2]; 6 h after fourth daily dose 1 mg kg−1 i.p.): only marginally greater than plasma levels
- Brain level relative to plasma level ([2]; 24 h after single dose 1 mg kg−1 i.p.): up to 10 fold
- AUC in tumour ([2]; day 1, 1 mg kg−1 i.p.): 582.0 µmol·min/L
- AUC in tumour ([2]; day 4, 1 mg kg−1 i.p. daily): 509.6 µmol·min/L
- AUC in brain ([2]; day 1, 1 mg kg−1 i.p.): 37.0 µmol·min/L
- AUC in plasma ([2]; day 1, 1 mg kg−1 i.p.): 26.4 µmol·min/L
- Plasma half-life ([2]; day 1, 1 mg kg−1 i.p.): 299 min
- AUC in brain ([2]; day 4, 1 mg kg−1 i.p. daily): 14.7 µmol·min/L
- AUC in plasma ([2]; day 4, 1 mg kg−1 i.p. daily): 21.9 µmol·min/L
- Plasma half-life ([2]; day 4, 1 mg kg−1 i.p. daily): 254 min
- Plasma level of AG-014447 at 24 h ([2]; first dose AG-014699 1 mg kg−1 i.p., LLOQ 1 ng ml−1): below the level of quantitation
- c log D [3]: 0.7
- pKa [3]: 9.6
